Experimental data: patent US10584303B2, “Stabilization of isothiazolones in aqueous compositions” (DDP Specialty Electronic Materials US, Inc., priority 2014, dated 2020)
Where two headings read alike, the source gives them in different places.

How the values were obtained:
[1] = Stability of MIT: 25% amine and 10 ppm MIT (HPLC); details: extremely high ratios of amine:isothiazolone (25% amine, 10 ppm MIT); room temperature and 40° C.
Description: (§1) The MWF samples dosed with biocide were analyzed for active level by high pressure liquid chromatography (HPLC) at time 0. The samples were then vortexed and split into a sample that was aged at room temperature and a sample that was aged at 40° C. Each week an aliquot of the aged samples was evaluated by HPLC for the level of active remaining. Samples where no active was found for two consecutive weeks were no longer analyzed.

[2] = 168 h
Description: as §1

Row | Compound | stability of MIT compared with other amines [1] | remaining active ingredient MIT [2] [wt %] | remaining active ingredient MIT (336 h) [wt %] | remaining active ingredient MIT (504 h) [wt %]
1 | CCC(O)CN(CCO)CCO (stereo not drawn) [Amine A, 1-[bis(hydroxylethyl)amino]-2-butanol] | much better stability |  |  | 
2 | CCC(O)CN(CCO)CC(O)CC (stereo not drawn) [Amine D, N,N-bis(2-hydroxybutyl)-2-amino ethanol] | much better stability |  |  | 
3 | NCCO [Amine F, 2-aminoethanol, reference compound] |  | 0 | 108 | 
4 | CC(O)CN(CC(C)O)CC(C)O (stereo not drawn) [Amine G, triisopropanol amine] |  |  | 110 | 108
